{"source": "paper PMC10230575", "about": "(Bioorganic & medicinal chemistry letters, 2022)", "note": "Changes are numbered by the printed parent chain.", "data": [{"system": "human wild-type (WT) Slack channels", "test": "not given", "conditions": "whole-cell patch clamp, HEK-293, human WT Slack; cited from earlier work", "units": {"IC50": "µM"}, "values": [{"smiles": "Cc1cccc(CC(=O)Nc2cnn(-c3cccc(C(=O)NCc4ccccc4-n4cncn4)c3)c2)c1", "note": "[Compound 1]", "IC50": 3.2}]}, {"system": "mouse model of Kcnt1 GOF", "test": "not given", "conditions": "orally available; cited from earlier work", "values": [{"smiles": "C[C@H](NC(=O)c1cc(C(F)(F)F)nn1C)c1nc(-c2ccnc(C(F)(F)F)c2)no1", "note": "[Compound 3]", "EEG phenotype": "normalizes the EEG phenotype"}]}, {"system": "cortical neuronal culture", "test": "not given", "conditions": "overexcited, spontaneously firing cortical neuronal culture; cited from earlier work", "values": [{"smiles": "COc1ccc(Cl)cc1NC(=O)CN1CCN(S(=O)(=O)N2CCC(C)CC2)CC1", "note": "[Compound 4]", "firing rate": "decreased the firing rate"}]}, {"target": "Maxi-K (Slo1 α1/β3) (Homo sapiens, UniProt Q12791)", "sequence (Q12791 whole entry, species assumed)": "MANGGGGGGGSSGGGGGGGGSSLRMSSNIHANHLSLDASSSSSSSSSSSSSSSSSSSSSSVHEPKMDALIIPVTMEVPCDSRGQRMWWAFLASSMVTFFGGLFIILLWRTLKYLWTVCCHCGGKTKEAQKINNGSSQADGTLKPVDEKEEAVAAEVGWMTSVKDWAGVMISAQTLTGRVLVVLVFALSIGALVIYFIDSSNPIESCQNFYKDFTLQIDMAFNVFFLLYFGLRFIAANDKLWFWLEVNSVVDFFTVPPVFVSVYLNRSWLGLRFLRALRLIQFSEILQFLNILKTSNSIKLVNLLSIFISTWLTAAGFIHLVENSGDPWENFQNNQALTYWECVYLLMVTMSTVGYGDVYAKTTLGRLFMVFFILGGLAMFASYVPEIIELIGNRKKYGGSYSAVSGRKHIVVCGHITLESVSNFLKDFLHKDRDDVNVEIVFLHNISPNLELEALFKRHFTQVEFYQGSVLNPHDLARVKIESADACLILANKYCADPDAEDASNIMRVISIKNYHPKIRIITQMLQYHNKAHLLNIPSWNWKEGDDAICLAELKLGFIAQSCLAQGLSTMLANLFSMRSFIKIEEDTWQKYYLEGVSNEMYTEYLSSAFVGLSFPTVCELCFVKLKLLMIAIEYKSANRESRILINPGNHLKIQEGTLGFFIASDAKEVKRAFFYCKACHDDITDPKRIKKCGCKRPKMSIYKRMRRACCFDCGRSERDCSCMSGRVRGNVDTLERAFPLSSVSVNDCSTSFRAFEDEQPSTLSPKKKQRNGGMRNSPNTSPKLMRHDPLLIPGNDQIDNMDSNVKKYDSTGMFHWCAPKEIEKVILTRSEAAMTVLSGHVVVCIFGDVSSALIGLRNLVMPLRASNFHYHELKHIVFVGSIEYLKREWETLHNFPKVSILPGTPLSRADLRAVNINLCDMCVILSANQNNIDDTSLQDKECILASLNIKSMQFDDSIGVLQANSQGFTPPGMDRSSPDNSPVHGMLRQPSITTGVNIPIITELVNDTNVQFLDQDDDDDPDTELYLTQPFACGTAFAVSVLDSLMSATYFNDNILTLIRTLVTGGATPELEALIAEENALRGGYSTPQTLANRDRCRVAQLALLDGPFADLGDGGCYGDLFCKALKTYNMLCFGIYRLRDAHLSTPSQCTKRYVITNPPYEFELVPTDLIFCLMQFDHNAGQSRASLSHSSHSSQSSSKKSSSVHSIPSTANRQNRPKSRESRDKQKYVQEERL", "sequence (Q9NPA1 whole entry partner, species assumed)": "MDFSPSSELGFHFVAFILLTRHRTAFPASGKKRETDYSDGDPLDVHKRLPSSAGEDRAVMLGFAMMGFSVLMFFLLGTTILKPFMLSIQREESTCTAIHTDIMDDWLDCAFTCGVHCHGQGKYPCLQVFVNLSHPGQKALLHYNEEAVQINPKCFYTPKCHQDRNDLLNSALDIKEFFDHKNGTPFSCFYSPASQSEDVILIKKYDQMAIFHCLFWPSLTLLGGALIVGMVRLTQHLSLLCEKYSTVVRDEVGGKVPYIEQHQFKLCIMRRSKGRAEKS", "test": "Tl+ flux assay in HEK-293 cells expressing Maxi-K", "assay_type": "cell-based", "conditions": "30 µM test compound, % of maximum response for paxilline", "values": [{"smiles": "COc1ccc(Cl)cc1NC(=O)CN1CCN(S(=O)(=O)N2CCC(C)CC2)CC1", "note": "[Compound 4]", "Maxi-K (Slo1 α1/β3) Efficacy": "inactive"}, {"smiles": "COc1ccc(Cl)cc1NC(=O)[C@H](C)N1CCN(S(=O)(=O)N2CCC(C(F)(F)F)CC2)CC1", "note": "[Compound 61]", "Maxi-K (Slo1 α1/β3) Efficacy": "inactive"}]}, {"target": "Maxi-K (Slo1 α1/β3) (Homo sapiens, UniProt Q12791)", "test": "Tl+ flux assay in HEK-293 cells expressing Maxi-K", "assay_type": "cell-based", "conditions": "CRC, Tl+ flux, HEK-293 expressing Maxi-K", "values": [{"smiles": "COc1ccc(Cl)cc1NC(=O)CN1CCN(S(=O)(=O)N2CCC(C)CC2)CC1", "note": "[Compound 4]", "Maxi-K (Slo1 α1/β3) IC50": "inactive"}, {"smiles": "COc1ccc(Cl)cc1NC(=O)[C@H](C)N1CCN(S(=O)(=O)N2CCC(C(F)(F)F)CC2)CC1", "note": "[Compound 61]", "Maxi-K (Slo1 α1/β3) IC50": "inactive"}]}, {"target": "Maxi-K (Slo1 α1/β3) (Homo sapiens, UniProt Q12791)", "test": "Tl+ flux assay in HEK-293 cells expressing Maxi-K", "assay_type": "cell-based", "conditions": "Tl+ flux", "values": [{"smiles": "COc1ccc(C(F)(F)F)cc1NC(=O)CN1CCN(S(=O)(=O)N2CCC(C)CC2)CC1", "note": "[Compound 27]", "Maxi-K inhibition in words": "weak inhibition"}, {"smiles": "COc1ccc(Cl)cc1NC(=O)[C@H](C)N1CCN(S(=O)(=O)N2CCC(C(F)(F)F)CC2)CC1", "note": "[Compound 61]", "Maxi-K inhibition in words": "inactive"}, {"smiles": "COc1ccc(Cl)cc1NC(=O)CN1CCN(S(=O)(=O)N2CCC(C)CC2)C[C@H]1C", "note": "[Compound 87]", "Maxi-K inhibition in words": "weak inhibition"}]}, {"target": "T1, wild-type human (WT) Slack (Homo sapiens, UniProt Q5JUK3)", "T1 sequence (Q5JUK3 1-1235 isoform Q5JUK3-3)": "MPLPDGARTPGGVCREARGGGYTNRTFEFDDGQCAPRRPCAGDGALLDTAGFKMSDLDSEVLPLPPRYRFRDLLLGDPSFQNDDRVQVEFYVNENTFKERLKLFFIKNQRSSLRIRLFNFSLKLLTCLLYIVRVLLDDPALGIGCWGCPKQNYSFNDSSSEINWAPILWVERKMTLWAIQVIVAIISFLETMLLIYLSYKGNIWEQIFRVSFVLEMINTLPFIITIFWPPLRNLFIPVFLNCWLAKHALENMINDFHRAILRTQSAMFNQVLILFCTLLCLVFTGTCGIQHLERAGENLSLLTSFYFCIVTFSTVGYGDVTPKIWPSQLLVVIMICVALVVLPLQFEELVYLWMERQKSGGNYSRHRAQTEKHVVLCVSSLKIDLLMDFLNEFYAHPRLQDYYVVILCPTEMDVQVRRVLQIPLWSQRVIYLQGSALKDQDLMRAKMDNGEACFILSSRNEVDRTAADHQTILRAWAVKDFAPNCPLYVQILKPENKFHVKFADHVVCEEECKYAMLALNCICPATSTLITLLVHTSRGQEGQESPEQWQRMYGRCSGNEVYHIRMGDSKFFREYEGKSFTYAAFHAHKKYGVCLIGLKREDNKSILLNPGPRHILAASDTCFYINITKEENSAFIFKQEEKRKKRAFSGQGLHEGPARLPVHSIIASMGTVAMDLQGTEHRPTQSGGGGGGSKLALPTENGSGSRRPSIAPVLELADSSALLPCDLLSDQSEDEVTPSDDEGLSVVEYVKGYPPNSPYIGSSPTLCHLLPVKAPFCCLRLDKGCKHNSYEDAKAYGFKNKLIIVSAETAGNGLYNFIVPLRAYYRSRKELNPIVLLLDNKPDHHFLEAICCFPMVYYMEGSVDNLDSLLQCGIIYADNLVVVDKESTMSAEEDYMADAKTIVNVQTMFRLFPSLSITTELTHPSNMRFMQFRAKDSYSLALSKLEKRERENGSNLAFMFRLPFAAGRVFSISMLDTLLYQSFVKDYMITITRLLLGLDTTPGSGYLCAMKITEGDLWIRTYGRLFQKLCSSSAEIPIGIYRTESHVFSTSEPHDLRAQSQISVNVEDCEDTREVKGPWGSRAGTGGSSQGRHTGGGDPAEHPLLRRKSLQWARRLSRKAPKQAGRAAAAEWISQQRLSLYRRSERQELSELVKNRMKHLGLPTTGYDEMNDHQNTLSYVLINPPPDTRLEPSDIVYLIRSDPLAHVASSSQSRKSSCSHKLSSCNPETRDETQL", "test": "Tl+ flux assay in HEK-293 cells stably expressing WT Slack", "assay_type": "cell-based", "conditions": "Table 1; CRC, Tl+ flux, HEK-293 WT Slack; Mode Inh", "units": {"IC50 / EC50 (IC50, inhibitors)": "µM"}, "values": [{"smiles": "COc1ccc(Cl)cc1NC(=O)CN1CCN(S(=O)(=O)N2CCC(C)CC2)CC1", "note": "[Compound 4]", "IC50 / EC50 (IC50, inhibitors)": 2.4}]}, {"target": "T1, wild-type human (WT) Slack", "test": "Tl+ flux assay in HEK-293 cells stably expressing WT Slack", "assay_type": "cell-based", "conditions": "Table 3; no mode assigned", "values": [{"smiles": "COc1ccc(Cl)cc1NC(=O)CN1CCN(S(=O)(=O)N2CCN(S(=O)(=O)N3CCCCC3)CC2)CC1", "note": "[Compound 43]", "IC50 / EC50 (result in words)": "inactive"}, {"smiles": "COc1ccc(Cl)cc1NC(=O)CN1CCN(S(=O)(=O)N2CCN(S(=O)(=O)N3CCOCC3)CC2)CC1", "note": "[Compound 44]", "IC50 / EC50 (result in words)": "inactive"}, {"smiles": "COc1ccc(Cl)cc1NC(=O)CN1CCN(S(=O)(=O)N2CCN(S(=O)(=O)C3CCCCC3)CC2)CC1", "note": "[Compound 45]", "IC50 / EC50 (result in words)": "inactive"}, {"smiles": "COc1ccc(Cl)cc1NC(=O)CN1CCN(S(=O)(=O)N2CCN(S(=O)(=O)c3ccc(C)cc3)CC2)CC1", "note": "[Compound 47]", "IC50 / EC50 (result in words)": "inactive"}]}, {"target": "T1, wild-type human (WT) Slack", "test": "Tl+ flux assay in HEK-293 cells stably expressing WT Slack", "assay_type": "cell-based", "conditions": "running text and footnotes; WT Slack Tl+ flux", "values": [{"smiles": "CC1CCN(S(=O)(=O)N2CCN(CC(=O)Nc3ccccc3Cl)CC2)CC1", "note": "[Compound 15]", "Slack activity profile in words": "mixed profile"}, {"smiles": "Cc1ccccc1NC(=O)CN1CCN(S(=O)(=O)N2CCC(C)CC2)CC1", "note": "[Compound 18]", "Slack activity profile in words": "mixed profile"}, {"smiles": "Cc1cccc(NC(=O)CN2CCN(S(=O)(=O)N3CCC(C)CC3)CC2)c1", "note": "[Compound 19]", "Slack activity profile in words": "mixed profile"}, {"smiles": "COc1ccccc1NC(=O)CN1CCN(S(=O)(=O)N2CCC(C)CC2)CC1", "note": "[Compound 21]", "Slack activity profile in words": "maintained the inhibitory profile"}, {"smiles": "COc1cccc(NC(=O)CN2CCN(S(=O)(=O)N3CCC(C)CC3)CC2)c1", "note": "[Compound 22]", "Slack activity profile in words": "mixed profile"}, {"smiles": "CC1CCN(S(=O)(=O)N2CCN(CC(=O)Nc3cc(Cl)ccc3F)CC2)CC1", "note": "[Compound 29]", "Slack activity profile in words": "not effective"}, {"smiles": "CC1CCN(S(=O)(=O)N2CCN(CC(=O)Nc3cc(Cl)ccc3Cl)CC2)CC1", "note": "[Compound 30]", "Slack activity profile in words": "not effective"}, {"smiles": "Cc1ccc(Cl)cc1NC(=O)CN1CCN(S(=O)(=O)N2CCC(C)CC2)CC1", "note": "[Compound 31]", "Slack activity profile in words": "not effective"}, {"smiles": "COc1ccc(Cl)cc1NC(=O)CN1CCN(S(=O)(=O)N2CCN(S(=O)(=O)N3CCC(F)(F)C3)CC2)CC1", "note": "[Compound 50]", "Slack activity profile in words": "weak activators"}, {"smiles": "COc1ccc(Cl)cc1NC(=O)CN1CCN(S(=O)(=O)N2CCN(C(=O)N3CCCCC3)CC2)CC1", "note": "[Compound 51]", "Slack activity profile in words": "weak activators"}, {"smiles": "CCCC1CCN(C(=O)N2CCN(S(=O)(=O)N3CCN(CC(=O)Nc4cc(Cl)ccc4OC)CC3)CC2)CC1", "note": "[Compound 52]", "Slack activity profile in words": "weak inhibitor"}, {"smiles": "COc1ccc(Cl)cc1NC(=O)CN1CCN(S(=O)(=O)N2CCN(C(=O)N3CCC(C(C)C)CC3)CC2)CC1", "note": "[Compound 53]", "Slack activity profile in words": "mixed profile"}, {"smiles": "COc1ccc(Cl)cc1NC(=O)CN1CCN(S(=O)(=O)N2CCN(C(=O)N3CCCCCC3)CC2)CC1", "note": "[Compound 55]", "Slack activity profile in words": "weak activators"}, {"smiles": "COc1ccc(Cl)cc1NC(=O)CN1CCN(S(=O)(=O)N2CCC(C)CC2)[C@@H](C)C1", "note": "[Compound 68]", "Slack activity profile in words": "significantly reduced potency"}, {"smiles": "COc1ccc(Cl)cc1NC(=O)CN1CCN(S(=O)(=O)N2CCC(C)CC2)C[C@@H]1C", "note": "[Compound 71]", "Slack activity profile in words": "well tolerated"}, {"smiles": "COc1ccc(Cl)cc1NC(=O)CN(C)CCN(C)S(=O)(=O)N1CCC(C)CC1", "note": "[Compound 81]", "Slack activity profile in words": "retained inhibitory activity but exhibited reduced potency"}, {"smiles": "COc1ccc(Cl)cc1NC(=O)CN1CCN(S(=O)(=O)N2CCC(C)CC2)[C@H](C)C1", "note": "[Compound 86]", "Slack activity profile in words": "significantly reduced potency"}, {"smiles": "COc1ccc(Cl)cc1NC(=O)CN1CCN(S(=O)(=O)N2CCC(C)CC2)C[C@H]1C", "note": "[Compound 87]", "Slack activity profile in words": "equipotent to hit compound 4"}, {"smiles": "COc1ccc(Cl)cc1NC(=O)N1CC2(CCN(S(=O)(=O)N3CCC(C)CC3)CC2)C1", "note": "[Compound 88]", "Slack activity profile in words": "weak activators"}, {"smiles": "COc1ccc(Cl)cc1NC(=O)N1CC2(C1)CN(S(=O)(=O)N1CCC(C)CC1)C2", "note": "[Compound 90]", "Slack activity profile in words": "weak inhibitor"}, {"smiles": "COc1ccc(Cl)cc1NC(=O)N1C[C@@H]2CN(S(=O)(=O)N3CCC(C)CC3)C[C@@H]2C1", "note": "[Compound 91]", "Slack activity profile in words": "devoid of activity"}, {"smiles": "COc1ccc(Cl)cc1NC(=O)N1CCCN(S(=O)(=O)N2CCC(C)CC2)CC1", "note": "[Compound 92]", "Slack activity profile in words": "moderately potent"}]}, {"target": "T2, A934T Slack (Homo sapiens, UniProt Q5JUK3, A915T)", "T2 sequence (Q5JUK3 1-1235 isoform Q5JUK3-3 A934T)": "T1 sequence (Q5JUK3 1-1235 isoform Q5JUK3-3) with A934T", "test": "Tl+ flux assay in HEK-293 cells expressing A934T Slack", "conditions": "Table 6; 30 µM test compound, % of maximum response for VU0606170", "units": {"A934T Efficacy": "%"}, "values": [{"smiles": "COc1ccc(F)cc1NC(=O)CN1CCN(S(=O)(=O)N2CCC(C)CC2)CC1", "note": "[Compound 24]", "A934T Efficacy": 100}]}]}
